According to US7026355B2, “Use of rhein or diacerhein compounds for the treatment or prevention of vascular diseases” (Transition Therapeutics Inc., priority 2001, dated 2006):
Numbered stars: 1 amine (or outer) side, 2 acyl side, 3 side chain; on linkers, the order of the positions; unused ones are H or OH. Bridge positions count the residues as written; N and C are the ends. Square brackets hold non-standard residues; d marks the D form. Peptide text beside a SMILES is read from it. I, II: the chains in the order shown. Actinocin(9to1) = Cc1c2oc3c(C)ccc(C(=O)[*:1])c3nc-2c(C(=O)[*:2])c(N)c1=O; NMeV = CN[C@H](C(=O)O)C(C)C; Sar = CNCC(=O)O

Key:
[1] = test system: Rat aortic smooth muscle cells (A-10 cells); assay: in vitro assay of smooth muscle cell migration after scrape injury; assay type: cell-based; conditions: incubation 20 h
Method: The following in vitro assay was conducted to illustrate the effect of diacerhein on smooth muscle cell migration. Increased smooth muscle cell migration following injury is one of the predominant causes of obstruction of the vascular system following stenting and other vascular procedures.
Rat aortic smooth muscle cells (A-10 cells) were seeded at 2.5×10^5 cells/well in 6 well plates using Dulbecco's Modified Eagle Medium™ (Gibco BRL Cat. # 11885-084), 10% FBS and 1% Antibiotic Antimycotic (Gibco BRL Cat. # 15240). Confluency of cells after about 8 h was between 80˜90%. Cells were injured with the single edge cell scraper (one injury/well) then washed twice with PBS and treated with diacerhein at concentrations ranging from 50 μM to 100 μM. Images were taken using a X5 modulation objective (Zeiss, Germany) attached to a Zeiss Axiovert 100 inverted microscope equipped with Hoffman Modulation contrast optical filters (Greenvale, N.Y.).
The images were taken at zero time and following the incubation of smooth muscle cells with diacerhein for a period of 20 h.

[2] = test system: iron regulatory protein; conditions: inflamed human monocytes; cited from earlier work
[3] = test system: prostaglandin E2 synthesis; conditions: cited from earlier work
[4] = test system: aortic smooth muscle cells; assay: prolonged incubation (1-3 days), cells counted with a hemocytometer; assay type: cell-based, Rat
Method: (§1) The CellTiter 96® AQueous One Solution Cell Proliferation Assay (Promega) was used as a colorimetric method for determining the number of viable cells in proliferation. Cell proliferation assays were performed by adding a small amount of the CellTiter 96® AQueous One Solution Reagent directly to culture wells, incubating for 1–4 hours and then recording absorbance at 490 nm with a 96 well plate reader. The quantity of formazan product as measured by the amount of 490 nm absorbance is known in the art to be directly proportional to the number of living cells in the culture. For the assay, cells were incubated with rhein or diacerhein for 24 h. In addition, cells from selected concentrations are also treated with rhein or diacerhein and are incubated for 1–3 days. The cells are harvested and counted using a hemocytometer. Trypan blue staining was carried out to determine % of viable cells vs dead cells.
Intimal smooth muscle cell (SMC) proliferation plays a key role in atherosclerosis and restenosis following vascular injury. Therefore, rhein or diacerhein is predicted to effectively treat these disease states.

[5] = test system: A-10 cells; assay: Trypan blue staining, % of viable cells vs dead cells; assay type: cell-based; conditions: no treatment 96.2%
Method: as §1

[6] = test system: A-10 cells; assay: CellTiter 96 AQueous One Solution Cell Proliferation Assay; assay type: cell-based, Rat; conditions: for Measure of Proliferative Activity (Absorbance at 490 nm): 24 h, no treatment 0.775; for proliferative activity as compared to untreated cells: concentration higher than 10^−7 M
Method: A-10 cells were seeded at 1.0×10^3 cells/well in 96 well plates using Dulbecco's Modified Eagle Medium™ (Gibco BRL Cat. # 11885-084), 10% FBS and 1% Antibiotic Antimycotic (Gibco BRL Cat. # 15240) and allowed to grow overnight. Prior to treatment, cells were washed and the culture medium was replaced with culture medium containing either rhein or diacerhein at varying concentrations ranging from 10^−4 to 10^−8M.
as §1

[7] = 5 to 50 mg/kg for periods as long as 50 weeks; cited from earlier work
[8] = clinical trials of actinomycin-D eluting stents; cited from earlier work

| Structure (SMILES) | migration of smooth muscle cells ([1]; 50 μM) | migration of smooth muscle cells ([1]; 100 μM) | iron regulatory protein activation [2] | prostaglandin E2 synthesis [3] | anti-proliferative activity on prolonged incubation (FIG. 2) [4] | Percentage of viable cells ([5]; Treatment with 10^−4 M) | Percentage of viable cells ([5]; Treatment with 10^−5 M) | Percentage of viable cells ([5]; Treatment with 10^−6 M) | Measure of Proliferative Activity (Absorbance at 490 nm) ([6]; Treatment with 2.5 × 10^−5 M) | Measure of Proliferative Activity (Absorbance at 490 nm) ([6]; Treatment with 5.0 × 10^−5 M) | Measure of Proliferative Activity (Absorbance at 490 nm) ([6]; Treatment with 7.5 × 10^−5 M) | Measure of Proliferative Activity (Absorbance at 490 nm) ([6]; Treatment with 10^−4 M) | Measure of Proliferative Activity (Absorbance at 490 nm) ([6]; Treatment with 10^−5 M) | Measure of Proliferative Activity (Absorbance at 490 nm) ([6]; Treatment with 10^−6 M) | Measure of Proliferative Activity (Absorbance at 490 nm) ([6]; Treatment with 10^−7 M) | proliferative activity as compared to untreated cells [6] | severity of osteoarthritis [7] | prevention of restenosis [8] |
| --- | --- | --- | --- | --- | --- | --- | --- | --- | --- | --- | --- | --- | --- | --- | --- | --- | --- | --- |
| CC(=O)Oc1cccc2c1C(=O)c1c(OC(C)=O)cc(C(=O)O)cc1C2=O [Diacerhein, 4,5-bis(acetyloxy)-9,10-dihydro-4,5dihydroxy-9,10-dioxo-2-anthracenecarboxylic acid] | significantly inhibited | significantly inhibited | inhibits iron regulatory protein activation | stimulates prostaglandin E2 synthesis | anti-proliferative activity | 97.0% | 97.5% | 96.2% | 0.561 | 0.419 | 0.408 | 0.380 | 0.646 | 0.710 | 0.738 | decrease in proliferative activity | reduced the severity of osteoarthritis |  |
| O=C(O)c1cc(O)c2c(c1)C(=O)c1cccc(O)c1C2=O [Rhein, 9,10-dihydro-4,5-dihydroxy-9,10-dioxo-2-anthracenecarboxylic acid] |  |  |  |  | anti-proliferative activity | 97.1% | 96.0% | 97.5% | 0.577 | 0.518 | 0.460 | 0.430 | 0.675 | 0.738 | 0.891 | decrease in proliferative activity |  |  |
| Cc1c2oc3c(C)ccc(C(=O)N[C@@H]4C(=O)N[C@H](C(C)C)C(=O)N5CCC[C@H]5C(=O)N(C)CC(=O)N(C)[C@@H](C(C)C)C(=O)O[C@@H]4C)c3nc-2c(C(=O)N[C@@H]2C(=O)N[C@H](C(C)C)C(=O)N3CCC[C@H]3C(=O)N(C)CC(=O)N(C)[C@@H](C(C)C)C(=O)O[C@@H]2C)c(N)c1=O [actinomycin D] (I: T[dV]P[Sar][NMeV] / II: T[dV]P[Sar][NMeV]; ester I:1-I:C, II:1-II:C; linker I:N-II:N via Actinocin(9to1)) |  |  |  |  |  |  |  |  |  |  |  |  |  |  |  |  |  | ineffectiveness |
